Measured values reported in article PMC8769072, “Proteome‐scale mapping of binding sites in the unstructured regions of the human proteome” (Molecular Systems Biology, 2022).
Like-named read-outs stand apart in the source and are kept apart here. Where a SMILES comes first, the peptide text is derived from it. Where no end group is shown, it is not given here. [ ]: non-standard residue; d: D form. pY = N[C@@H](Cc1ccc(OP(=O)(O)O)cc1)C(=O)O; pS = N[C@@H](COP(=O)(O)O)C(=O)O

Tests used:
Format in all cases: binding
KPNB1 HEAT = target: T1, KPNB1 HEAT (Homo sapiens, UniProt Q14974); test: FP competition, KPNB1 HEAT; conditions: for Ki: FP competition with FITC-NUP153 probe, low-affinity value
T1 construct: Q14974; KPNB1; HEAT; 485; pETM41; Genescript; 6-His-MBP (from vector pETM41) (cleaved yes); made in house; host or cells: bacteria (E. coli BL21(DE3) gold is named only for the phage-selection preparations)
T1 sequence (Q14974 1-485): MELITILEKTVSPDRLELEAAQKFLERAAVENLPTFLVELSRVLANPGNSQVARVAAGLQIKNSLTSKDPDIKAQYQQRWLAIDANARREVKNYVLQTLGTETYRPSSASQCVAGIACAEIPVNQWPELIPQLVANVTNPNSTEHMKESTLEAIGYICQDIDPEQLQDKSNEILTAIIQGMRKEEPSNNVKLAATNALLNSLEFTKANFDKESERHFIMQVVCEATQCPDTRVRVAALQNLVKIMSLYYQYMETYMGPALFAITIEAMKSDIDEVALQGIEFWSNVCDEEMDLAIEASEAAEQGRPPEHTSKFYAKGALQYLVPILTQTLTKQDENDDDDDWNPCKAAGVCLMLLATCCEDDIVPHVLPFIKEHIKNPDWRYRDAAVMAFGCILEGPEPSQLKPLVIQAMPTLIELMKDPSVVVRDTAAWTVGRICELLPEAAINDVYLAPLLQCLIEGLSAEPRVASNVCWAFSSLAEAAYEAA

KPNA4 ARM [1] = target: T2, KPNA4 ARM (Homo sapiens, UniProt O00629); test: FP competition, KPNA4 ARM minor pocket (FITC-NCOR2 probe); conditions: for effect of phosphorylation on the affinity for KPNA4, in words: FP competition with FITC-NCOR2 probe, phosphorylated versus unphosphorylated NCOR1 peptide
T2 construct: O00629; KPNA4; Arm; 68; 487; pETM33/pETM41; Genescript; made in house; host or cells: bacteria (E. coli BL21(DE3) gold is named only for the phage-selection preparations)
T2 sequence (O00629 68-487): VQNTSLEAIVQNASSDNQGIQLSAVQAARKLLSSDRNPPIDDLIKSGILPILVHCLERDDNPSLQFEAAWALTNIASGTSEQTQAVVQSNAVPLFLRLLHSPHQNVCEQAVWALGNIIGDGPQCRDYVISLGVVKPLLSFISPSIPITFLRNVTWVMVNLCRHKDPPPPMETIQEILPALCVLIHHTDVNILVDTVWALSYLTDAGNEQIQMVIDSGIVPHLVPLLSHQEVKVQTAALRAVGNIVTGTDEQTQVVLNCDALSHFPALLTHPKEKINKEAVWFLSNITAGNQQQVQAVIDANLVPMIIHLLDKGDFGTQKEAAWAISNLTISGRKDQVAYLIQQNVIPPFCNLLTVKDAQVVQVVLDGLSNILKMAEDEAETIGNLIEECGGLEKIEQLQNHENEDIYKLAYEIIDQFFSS
Excerpt: (§1) Like other importins, KPNA4 has two distinct NLS‐binding pockets on the surface of an armadillo (ARM) repeat fold (major pocket, ARM 2–4; minor pocket, ARM 6–8; Fig 5B) (Smith et al, [2018]). Bipartite NLSs are usually 17–19 amino acids long and engage both pockets. Monopartite NLSs are short basic stretches, divided into five classes (Kosugi et al, [2009]): class I KR[KR]R or K[KR]RK, class II [PR]xxKR[^DE][KR] (where ^ indicates “not”), class III KRx[WFY]xxAF, class IV [RP]xxKR[KR][^DE], and class V LGKR[KR][WFY]. The class I and class II motifs preferentially interact with the major pocket (Kosugi et al, [2009]). In contrast, class III and class IV NLSs preferentially bind to the minor pocket. Using KPNA4 as a bait against the HD2 P8 library we identified 33 peptides found in 32 proteins. Of the 26 proteins for which information was available, 22 proteins were annotated as having nuclear or nucleolar localization in the UniProt database. To gain additional information we combined the data generated for KPNA4 by screening against the complete P8 HD2 library, with the results generated using two relevant sublibraries (the cytoplasmic and nuclear, and nuclear sublibraries) resulting in a set of 92 peptides containing NLS‐like sequences found in 76 proteins. Using these peptides we could generate consensus motifs that matched four of the previously reported NLS classes (Fig 5A; class I‐IV). […] Three peptides bound only to the major pocket. Eight peptides with class III motif and one KRxH‐containing peptide only bound to the minor pocket. Five peptides outcompeted both probe peptides, which may be explained by the amino acid sequence matching both class II and class III motifs (e.g., 1135‐ PSPKRKL ‐1139 in ZNF532; Fig 5), and possibly by cross specificity of the two binding pockets.

KPNA4 ARM [2] = target: T2, KPNA4 ARM; test: FP competition, KPNA4 ARM major pocket (FITC-Myc probe); conditions: FP competition with FITC-Myc320-328 probe for the major pocket; 50 mM KPO4 pH 7.5; n = 3 technical replicates
Excerpt: as §1

TLN1 PTB = target: T3, TLN1 PTB (Homo sapiens, UniProt Q9Y490); test: FP competition, TLN1 PTB
T3 construct: Q9Y490; TLN1; PTB; 309; pHH0103; Sidhu Lab (PMID: 33438817); made in house; host or cells: bacteria (E. coli BL21(DE3) gold is named only for the phage-selection preparations)
T3 sequence (Q9Y490 309-401): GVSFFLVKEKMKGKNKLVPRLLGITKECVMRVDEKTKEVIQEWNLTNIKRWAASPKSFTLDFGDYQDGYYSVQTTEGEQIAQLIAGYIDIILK

KEAP1 Kelch = target: T4, KEAP1 Kelch (Homo sapiens, UniProt Q14145); test: FP competition, KEAP1 Kelch; conditions: for binding to KEAP1 Kelch, result in words: FP competition with FITC-NFE2L1 probe
T4 construct: Q14145; KEAP1; Kelch; 321; 609; pETM33; Genescript; made in house; host or cells: bacteria (E. coli BL21(DE3) gold is named only for the phage-selection preparations)
T4 sequence (Q14145 321-609): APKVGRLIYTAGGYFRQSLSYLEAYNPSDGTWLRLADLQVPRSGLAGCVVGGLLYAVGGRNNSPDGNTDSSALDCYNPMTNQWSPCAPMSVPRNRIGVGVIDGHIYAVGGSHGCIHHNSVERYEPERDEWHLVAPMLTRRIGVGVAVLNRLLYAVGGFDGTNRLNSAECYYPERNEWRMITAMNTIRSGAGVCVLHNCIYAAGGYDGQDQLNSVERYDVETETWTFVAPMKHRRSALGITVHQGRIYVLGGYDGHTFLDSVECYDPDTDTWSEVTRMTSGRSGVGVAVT

Molecule	IC50 (KPNA4 ARM [1]) [µM]	IC50 (KEAP1 Kelch) [µM]	further results
CC(=O)NCC(=O)N[C@@H](Cc1ccc(O)cc1)C(=O)N[C@H](C(=O)N[C@@H](Cc1ccccc1)C(=O)N[C@@H](CCC(N)=O)C(=O)N[C@H](C(=O)N[C@@H](CCC(N)=O)C(=O)N[C@@H](CC(=O)O)C(=O)NCC(=O)N[C@@H](C)C(=O)N1CCC[C@H]1C(=O)NCC(=O)N[C@H](C(=O)N[C@@H](Cc1ccccc1)C(=O)N[C@@H](CC(N)=O)C(=O)N[C@@H](Cc1ccccc1)C(=O)O)[C@@H](C)O)C(C)C)[C@@H](C)O [KPNA2_514–529]			Ki (KPNB1 HEAT): 1000 µM
CC[C@H](C)[C@H](NC(=O)[C@H](CC(N)=O)NC(=O)CNC(=O)[C@H](CCC(=O)O)NC(=O)[C@@H](NC(=O)[C@H](CO)NC(=O)[C@H](CCC(=O)O)NC(=O)[C@H](Cc1ccc(O)cc1)NC(=O)[C@H](CO)NC(=O)[C@H](CCCNC(=N)N)NC(=O)[C@H](CCCCN)NC(=O)[C@H](CC(C)C)NC(=O)[C@H](COP(=O)(O)O)NC(=O)[C@@H](NC(=O)[C@H](CCC(=O)O)NC(C)=O)[C@@H](C)CC)C(C)C)C(=O)N[C@@H](CCCCN)C(N)=O [NCOR1 pS1242] (Ac-EI[pS]LKRSYESVEGNIK-NH2)	31		effect of phosphorylation on the affinity for KPNA4, in words (KPNA4 ARM [1]): minor effects
CC[C@H](C)[C@H](NC(=O)[C@H](CC(N)=O)NC(=O)CNC(=O)[C@H](CCC(=O)O)NC(=O)[C@@H](NC(=O)[C@H](CO)NC(=O)[C@H](CCC(=O)O)NC(=O)[C@H](Cc1ccc(O)cc1)NC(=O)[C@H](COP(=O)(O)O)NC(=O)[C@H](CCCNC(=N)N)NC(=O)[C@H](CCCCN)NC(=O)[C@H](CC(C)C)NC(=O)[C@H](CO)NC(=O)[C@@H](NC(=O)[C@H](CCC(=O)O)NC(C)=O)[C@@H](C)CC)C(C)C)C(=O)N[C@@H](CCCCN)C(N)=O [NCOR1 pS1246] (Ac-EISLKR[pS]YESVEGNIK-NH2)	240		effect of phosphorylation on the affinity for KPNA4, in words (KPNA4 ARM [1]): marked loss of affinity
CC[C@H](C)[C@H](NC(=O)[C@H](CC(N)=O)NC(=O)CNC(=O)[C@H](CCC(=O)O)NC(=O)[C@@H](NC(=O)[C@H](CO)NC(=O)[C@H](CCC(=O)O)NC(=O)[C@H](Cc1ccc(OP(=O)(O)O)cc1)NC(=O)[C@H](CO)NC(=O)[C@H](CCCNC(=N)N)NC(=O)[C@H](CCCCN)NC(=O)[C@H](CC(C)C)NC(=O)[C@H](CO)NC(=O)[C@@H](NC(=O)[C@H](CCC(=O)O)NC(C)=O)[C@@H](C)CC)C(C)C)C(=O)N[C@@H](CCCCN)C(N)=O [NCOR1 pY1247] (Ac-EISLKRS[pY]ESVEGNIK-NH2)	21		effect of phosphorylation on the affinity for KPNA4, in words (KPNA4 ARM [1]): minor effects
CC(C)C[C@H](NC(=O)[C@H](CCCNC(=N)N)NC(=O)[C@@H]1CCCN1C(=O)[C@H](CCCNC(=N)N)NC(=O)[C@H](CCCCN)NC(=O)[C@H](CC(N)=O)NC(=O)[C@@H]1CCCN1C(=O)[C@H](Cc1ccccc1)NC(=O)[C@@H](NC(=O)[C@H](CC(=O)O)NC(=O)[C@H](CCC(=O)O)NC(=O)[C@@H](N)CO)[C@@H](C)O)C(=O)N[C@@H](CCC(=O)O)C(=O)N[C@@H](CC(=O)O)C(=O)N[C@@H](CCCCN)C(=O)N[C@H](C(=O)N[C@H](C(N)=O)C(C)C)[C@@H](C)O [SPRTN]			IC50 (KPNA4 ARM [2]): 0.26 µM
AGVKRSAAEMYGSVTE-NH2 [HNRNPC]	0.5		
AKWDTANNPLYKEATS-NH2 [ITB3]			IC50 (TLN1 PTB): 1430 µM; Ki (TLN1 PTB; FP competition with FITC-PIP5K1C probe): 500 µM
Ac-AYAPPVFVFQKDKGQK-NH2 [RANBP3]			IC50 (KPNB1 HEAT): 2200 µM; Ki (KPNB1 HEAT): ~1000 µM
Ac-EISLKRSYESVEGNIK-NH2 [NCOR1 Wt]	11		
Ac-GIIDPSTGECFPVTDY-NH2		2.3	binding to KEAP1 Kelch, result in words (KEAP1 Kelch): no effect on binding
Ac-GIIDPSTGERFPVTDY-NH2 [PLEC 4457-4471]		1.5	
Ac-NPPVATFVFGQSSNPY-NH2 [NUP153]			IC50 (KPNB1 HEAT): 49 µM
Ac-PPLPPPPLPPAPSLPY-NH2 [ATF5]		4430	
Ac-VLPDCLTDGSDVVSDY-NH2 [CFAP36]			Ki (KEAP1 Kelch; FP competition with FITC-NFE2L1 228-243 probe, protein at 4x KD and 10 nM probe in master mix, 50 mM KPO4 pH 7.5, Ki calculated from IC50, triplicates): > 2040 µM; IC50 (KEAP1 Kelch; FP competition with FITC-NFE2L1 228-243 probe, protein at 4x KD and 10 nM probe in master mix, 50 mM KPO4 pH 7.5, triplicates): > 2040 µM; binding to KEAP1 Kelch, result in words (KEAP1 Kelch): did not bind at all
Ac-YDEEKGEFLPIQPAQH-NH2 [NFE2L2 T80K]		2540	
Ac-YDEETGEFLPIQPAQH-NH2 [NFE2L2 Wt]		0.31	
Ac-YDEKTGEFLPIQPAQH-NH2 [NFE2L2 E79K]		1650	
Ac-YMQHLQEQQQQQMHLQ-NH2 [TREF1]		490	
DHQFPAKRPRLSEPQG-NH2 [HJURP]	170		IC50 (KPNA4 ARM [2]): 0.076 µM

Further lines, with some results ahead:

IC50 (KPNA4 ARM [1]) [µM]	IC50 (KEAP1 Kelch) [µM]	Molecule	further results
1.3		CC(C)C[C@H](NC(=O)[C@H](CCCCN)NC(=O)[C@H](CCCNC(=N)N)NC(=O)[C@H](CCCCN)NC(=O)[C@@H]1CCCN1C(=O)[C@H](CO)NC(=O)[C@@H]1CCCN1)C(=O)N[C@@H](CCC(=O)O)C(=O)N[C@@H](CCC(=O)O)C(=O)N1CCC[C@H]1C(=O)N[C@H](C(=O)N[C@@H](CC(C)C)C(=O)N[C@@H](CCC(=O)O)C(=O)N[C@@H](Cc1ccccc1)C(=O)N[C@@H](CCCNC(=N)N)C(=O)N1CCC[C@H]1C(N)=O)C(C)C [ZNF532]	
	3	Ac-LIYVDKENGEPGTRVV-NH2 [PTTG1]	
